In the supplement of paper PMC10307832:

Key:
Test in all cases: relative viability (nuclei count vs DMSO), 5 days (fraction); higher = more cells survive
[1] = compound: Cc1ccc(NC(=O)c2ccc(CN3CCN(C)CC3)cc2)cc1Nc1nccc(-c2cccnc2)n1 [Imatinib] + CC(=O)c1c(C)c2cnc(Nc3ccc(N4CCNCC4)cn3)nc2n(C2CCCC2)c1=O [Palbociclib] (partner 0.5 µM)
Outline: (§1)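 Each reported value is a median over duplicate plates. It expresses relative viability: treated-well nuclei count divided by vehicle-well nuclei count. Lung cancer cell lines in 1536-well plates were dosed by pin tool a day after seeding, alone with one drug or with a fixed anchor-drug dose plus five library-drug doses (not always all listed) in √10 steps, and nuclei were counted after 5 days.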

[2] = compound: Cc1ccc(NC(=O)c2ccc(CN3CCN(C)CC3)cc2)cc1Nc1nccc(-c2cccnc2)n1 [Imatinib] + Cc1cc(Nc2cc(N3CCN(C)CC3)nc(Sc3ccc(NC(=O)C4CC4)cc3)n2)n[nH]1 [Tozasertib] (partner 0.1 µM)
Outline: as §1

[3] = compound: Cc1ccc(NC(=O)c2ccc(CN3CCN(C)CC3)cc2)cc1Nc1nccc(-c2cccnc2)n1 [Imatinib] + NC(=O)Nc1cc(-c2cccc(F)c2)sc1C(=O)N[C@H]1CCCNC1 [AZD7762] (partner 0.2 µM)
Outline: as §1

[4] = compound: Cc1ccc(NC(=O)c2ccc(CN3CCN(C)CC3)cc2)cc1Nc1nccc(-c2cccnc2)n1 [Imatinib] + COc1cc2c(Oc3ccc(NC(=O)C4(C(=O)Nc5ccc(F)cc5)CC4)cc3F)ccnc2cc1OCCCN1CCOCC1 [Foretinib] (partner 0.25 µM)
Outline: as §1

Cell Line | relative viability ([1]; first compound 0.02 µM) | relative viability ([1]; first compound 0.06325 µM) | relative viability ([1]; first compound 0.2 µM) | relative viability ([1]; first compound 0.6325 µM) | relative viability ([1]; first compound 2 µM) | relative viability ([2]; first compound 0.02 µM) | relative viability ([2]; first compound 0.2 µM) | relative viability ([2]; first compound 2 µM) | relative viability ([3]; first compound 0.02 µM) | relative viability ([3]; first compound 0.06325 µM) | relative viability ([3]; first compound 0.2 µM) | relative viability ([3]; first compound 0.6325 µM) | relative viability ([3]; first compound 2 µM) | relative viability ([4]; first compound 0.02 µM) | relative viability ([4]; first compound 0.2 µM) | relative viability ([4]; first compound 0.6325 µM) | relative viability ([4]; first compound 2 µM) | relative viability ([2]; first compound 0.6325 µM) | relative viability ([2]; first compound 0.06325 µM) | relative viability ([4]; first compound 0.06325 µM)
201T | 0.337 | 0.336 | 0.35 | 0.329 | 0.361 | 0.98 | 1.06 | 0.859 | 0.72 | 0.399 | 0.589 | 0.541 | 0.517 | 1.21 | 1.06 | 1.04 | 1.12 | – | – | –
A-427 | 0.533 | 0.555 | 0.51 | 0.514 | 0.543 | 0.192 | 0.176 | 0.197 | 0.812 | 0.84 | 0.634 | 0.654 | 0.572 | 1.13 | 1 | 0.946 | 1.01 | 0.195 | – | –
ABC-1 | 0.749 | – | 0.741 | 0.872 | 0.664 | 0.211 | 0.221 | 0.141 | 0.821 | – | 0.786 | – | 0.726 | 0.739 | 0.904 | 1.13 | 0.922 | 0.185 | – | –
BEN | 0.469 | 0.541 | 0.488 | 0.458 | 0.467 | 0.523 | 0.489 | 0.51 | 0.702 | 0.544 | 0.681 | 0.782 | 0.582 | 0.774 | 0.564 | 0.701 | 0.602 | 0.492 | 0.546 | –
CAL-12T | 0.374 | 0.412 | 0.535 | 0.496 | 0.444 | 0.369 | 0.311 | 0.225 | 0.692 | 0.724 | 0.637 | 0.699 | – | 1.09 | 1.1 | 1.16 | 1.16 | 0.293 | – | –
COR-L23 | 0.329 | 0.226 | 0.303 | 0.31 | 0.297 | 0.226 | 0.165 | 0.154 | – | – | – | – | – | – | 1.01 | 0.984 | 1.01 | 0.161 | 0.174 | 1
COR-L 105 | 0.425 | 0.367 | 0.454 | 0.395 | 0.428 | 0.365 | 0.359 | 0.311 | – | – | – | – | – | 1.2 | – | 0.948 | 1.08 | 0.317 | 0.364 | 1.23
ChaGo-K-1 | 0.988 | – | 0.982 | 0.871 | 0.879 | 0.223 | 0.208 | 0.21 | 0.979 | – | 0.941 | 0.791 | 0.943 | 0.921 | 0.916 | 0.916 | 0.958 | 0.185 | 0.189 | 0.936
EBC-1 | – | – | – | – | – | – | – | – | – | – | – | – | – | 0.114 | 0.109 | 0.0904 | 0.0924 | – | – | 0.108
EKVX | 0.377 | – | 0.384 | 0.456 | – | – | 0.348 | 0.354 | – | – | 0.617 | 0.723 | – | – | 0.68 | 0.736 | 0.988 | 0.287 | 0.389 | 0.585
EMC-BAC-2 | 0.525 | 0.571 | 0.514 | 0.553 | 0.517 | 0.297 | 0.33 | 0.277 | 1.21 | 1.3 | 1.19 | 1.21 | 1.11 | 1.05 | 1.09 | 0.973 | 1.02 | 0.283 | 0.296 | 1.12
EPLC-272H | 0.309 | – | – | 0.34 | 0.297 | 0.366 | 0.256 | 0.207 | 0.218 | – | – | 0.156 | 0.15 | 0.938 | 0.819 | 0.558 | 0.59 | 0.258 | – | –
H3255 | 0.316 | 0.325 | 0.317 | 0.338 | 0.308 | 0.604 | 0.638 | 0.614 | 1.02 | 0.784 | – | 0.95 | 0.842 | 0.791 | – | 0.914 | 0.709 | 0.575 | 0.608 | 0.405
HARA | 0.262 | – | 0.264 | 0.281 | 0.262 | 0.083 | 0.107 | 0.101 | 0.361 | 0.267 | 0.292 | 0.232 | 0.304 | 0.836 | 0.976 | 0.886 | 0.971 | 0.0993 | – | –
HCC-15 | 0.496 | – | 0.822 | 0.778 | 0.713 | 0.472 | 0.389 | 0.284 | 0.449 | – | 1.32 | 1.42 | 1.3 | 1.14 | 1.05 | 0.987 | 1.09 | 0.402 | – | –
HCC-44 | 0.976 | – | 1.1 | – | 0.885 | 1.03 | 1.01 | 0.735 | – | – | 1.13 | 1.01 | 0.968 | – | – | – | – | 0.109 | 0.558 | –
HCC-78 | 0.468 | 0.527 | 0.528 | 0.452 | 0.499 | 0.393 | 0.427 | 0.427 | 0.592 | 0.714 | – | 0.636 | 0.58 | 0.654 | 0.534 | 0.44 | 0.56 | 0.409 | 0.455 | 0.577
HCC-366 | 0.435 | 0.425 | 0.502 | 0.35 | 0.412 | 0.193 | 0.109 | 0.0718 | 0.367 | 0.364 | 0.288 | 0.208 | 0.181 | 0.998 | 0.942 | 0.982 | 1.01 | 0.0574 | – | –
HCC-827 | 0.474 | 0.557 | 0.516 | 0.461 | 0.455 | 0.404 | 0.407 | 0.421 | 0.189 | 0.215 | 0.195 | 0.17 | 0.157 | 1.05 | 1.05 | 1.04 | 0.962 | 0.407 | 0.486 | 1.04
HOP-62 | 0.503 | – | 0.516 | 0.408 | 0.398 | 0.431 | 0.356 | 0.326 | 0.532 | – | 0.707 | 0.504 | 0.687 | 1.27 | 1.23 | 0.994 | 1.12 | 0.353 | – | –
